# Earlier results in patent US10045960B2, “Coating composition and medical device” (TERUMO KABUSHIKI KAISHA, priority 2012, dated 2018).
# Settings: hydropathy index according to Kyte and Doolittle, J. Mol. Biol., 157, 105-132 (1982)
row,SMILES,H.I. (hydropathy index)
1,NC(=O)C[C@H](N)C(=O)O [Asparagine],−3.5
2,N=C(N)NCCC[C@H](N)C(=O)O [Arginine],−4.5
3,NCCCC[C@H](N)C(=O)O [Lysine],−3.9
4,N[C@@H](Cc1c[nH]c2ccccc12)C(=O)O [Tryptophan],−0.9
5,N[C@@H](Cc1c[nH]cn1)C(=O)O [Histidine],−3.2
6,N[C@@H](CCC(=O)O)C(=O)O [Glutamic acid],−3.5
7,C[C@H](N)C(=O)O [Alanine],1.8
8,N[C@@H](CS)C(=O)O [Cysteine],2.5
9,N[C@@H](CC(=O)O)C(=O)O [Aspartic acid],−3.5

# The next lines start with the values.
row,H.I. (hydropathy index),SMILES
1,−1.3,N[C@@H](Cc1ccc(O)cc1)C(=O)O [Tyrosine]
2,4.5,CC[C@H](C)[C@H](N)C(=O)O [Isoleucine]
3,−0.8,N[C@@H](CO)C(=O)O [Serine]
4,1.9,CSCC[C@H](N)C(=O)O [Methionine]
5,4.2,CC(C)[C@H](N)C(=O)O [Valine]
6,−0.7,C[C@@H](O)[C@H](N)C(=O)O [Threonine]
7,2.8,N[C@@H](Cc1ccccc1)C(=O)O [Phenylalanine]
